Source: patent publication US20250270513A1, “METHOD FOR PRODUCING CULTURED TISSUE, AND PREPARATION FOR EXTERNAL APPLICATION” (National University Corporation Ehime University, priority 2019, published 2025)

Legend:
[1] = test system: human normal skin keratinocytes on collagen gel containing normal human skin fibroblasts (NHDF); assay: Three-dimensional cultured skin on a sugar-containing dermal cell structure (Test Example 1); type: cell-based
Experimental: Subsequently, about 1 mL of the gel obtained was poured into a transwell-collagen coated insert (catalog number: 3492, manufactured by Costar; pore size: 3.0 μm, surface area: 4.67 cm^2), which is a cell culture insert, and allowed to stand in an incubator for 5 minutes or more. 5 mL of DMEM containing 10 v/v % FCS and 1 v/v % ABAM (Antibiotics-Antimycotic solution, 100×, manufactured by ThermoFisher Scientific Inc.) in which normal human skin fibroblasts (NHDF, manufactured by Cambrex Corporation) were suspended at a cell density of 5×10^5 cells/mL was added to 29 mL of the gel solution I. About 3.5 mL of a gel solution containing the cells was added to the cell culture insert, and the mixture was allowed to stand in a 37° C. incubator for 30 minutes to gel.
(§1) • (2) Next, the collagen gel (layered dermal cell structure) containing NHDF was pre-cultured for 5 days using a DMEM medium containing 50 μg/ml ascorbic acid, 10 v/v % FCS, and 1 v/v % ABAM. Next, human normal skin keratinocytes suspended in MCDB medium were seeded on the collagen gel surface so as to be 1.28×10^5 cells/cm^2, and a medium obtained by mixing equal amounts of MCDB Type-II medium (Growth Medium 2 in JP-B2-3066624) and EGM was added to an external liquid of the cell culture insert and the inside of the insert, followed by culturing at 37° C. for 2 days.
• (3) The medium was replaced with a cornification medium (CM medium), and the cell culture insert was placed such that a porous membrane of the cell culture insert was located at a gas-liquid interface of the cornification medium. In this state, the cells were subjected to gas-liquid interface culture at 37° C. for 7 to 14 days to induce differentiation, thereby obtaining three-dimensional cultured skin. The medium was replaced every two days from the start of the culture.

[2] = test system: three-dimensional cultured skin (dermal tissue layer fibroblasts); assay: Staining test of tissue sections of three-dimensional cultured skin (Test Example 1); type: cell-based, human
Text: • (4) The obtained tissue sections of each three-dimensional cultured skin were stained with HE, EVG, HABP, K10, K5, Alcian blue, SMA and Ki67 by a conventional method. For Ki67 staining, a Ki67 antibody (manufactured by Novocastra Laboratories Ltd) and a secondary antibody (manufactured by Vector Laboratories) were used.

[3] = test system: human normal skin keratinocytes; assay: Culture of keratinocytes alone without collagen gel containing fibroblasts (Test Example 1); type: cell-based; settings: 100 mg/mL trehalose in medium, no fibroblast collagen gel
Experimental: as §1
On the other hand, when 100 mg/mL trehalose was added to the medium of (2) without collagen gel containing fibroblasts and culture was performed with keratinocytes alone, formation of epithelial tissue layer was not observed as in the absence of trehalose.

[4] = test system: ERK1/2 (Thr202/Tyr204 phosphorylated); assay: Western blotting of phosphorylated ERK1/2 in fibroblasts (Test Example 3-1); type: cell-based, human; settings: 0, 10, 100 mg/mL trehalose in medium, 24 hours
Experimental: (§2) The cells were further DNA-stained with PI and subjected to FCM, and the proportion of each cell cycle was examined.
(§3) (3) Furthermore, proteins were extracted from the fibroblasts obtained in (1) using RIPA buffer (1% protein inhibitor (manufactured by SIGMA)+Phosphatase Inhibitor cocktail (manufactured by SIGMA)). Then, 10 μg of protein per sample was separated by SDS-PAGE by a conventional method, transferred to a PVDF membrane, and then subjected to Western blotting. Phosphorylated ERK1/2 and phosphorylated AKT were detected by ECL Prime Western Blotting Detection Reagent (manufactured by GE Healthcare), using Phospho-p44/p42 MAPK (Erk1/2) (Thr202/Tyr204) (D13.14.4E) XP Rabbit mAb (#4300, Cell Signaling) and Phospho-Akt (Ser473) antibody (#9271, manufactured by Cell Signaling Technology) as a primary antibody, and an anti-rabbit IgG antibody and an anti-mouse IgG antibody manufactured by PROMEGA were used as secondary antibodies, and visualized by Image Quant LAS4010 (manufactured by GE Healthcare).

[5] = test system: AKT (Ser473 phosphorylated); assay: Western blotting of phosphorylated AKT in fibroblasts (Test Example 3-1); type: cell-based, human; settings: 0, 10, 100 mg/mL trehalose in medium, 24 hours
Experimental: as §2, §3

FGF2 mRNA = assay: qPCR of FGF2 gene in monolayer fibroblasts (Test Example 3-2); type: cell-based, human; settings: for FGF2 expression level compared to control without trehalose (vehicle): after 3 hours of culture
Experimental: • (1) NHDF was seeded on a cell culture dish containing 1% FCS and 1% ABAM-containing DMEM medium containing 0, 30, and 100 mg/mL trehalose so as to be 5.5×10^4 cells/cm^2, and cultured for 3, 24, or 48 hours. • (2) Cells under each condition were collected, and mRNA was extracted using RNeasy Mini Kit (manufactured by QIAGEN). CDNA was prepared from mRNA using iScript cDNA Synthesis kit (manufactured by B10-RAD Laboratories). The method was performed according to each manual. Next, quantitative PCR (qPCR) of FGF2 gene was performed. For the reaction, Fast Start Universal Probe Master (Rox) (Roche) and StepOnePlue Real time PCR system were used. As a primer set, TaqMan probes for FGF2 (ThermoFisher Scientific) described in Table 5 were used. GAPDH was used as a reference gene. The number of samples used in each condition was 3.

[6] = test system: EREG, ARG2, CCL2, IL1RN, PGF, SPP1, VEGFA, AREG and DPT mRNA; assay: qPCR of genes in monolayer fibroblasts, 24 hours (Test Example 3-3); type: cell-based, human; settings: 100 mg/mL trehalose (Treha 100)
Experimental: In the same manner as in Test Example 3-2, NHDF was cultured in 1% FCS and 1% ABAM-containing DMEM medium containing 0, 30, or 100 mg/mL trehalose or hyaluronic acid oligosaccharide 4mer (HA4) (product code 11006, manufactured by Cosmo Bio Co., Ltd.) for 24 hours, and RNA was recovered from the cells. Also, as a control, RNA was recovered from fibroblasts before treatment (0 h in FIG. 9). The obtained sample was subjected to the same operation as in Test Example 3-2, and qPCR for genes EREG, ARG2, CCL2, IL1RN, PGF, SPP1, VEGFA, AREG and DPT was performed. GAPDH was used as a reference gene.

[7] = culture to which trehalose was added
[8] = 100 mg/mL trehalose, after 24 hours
[9] = 100 mg/mL trehalose, after 48 hours

**Q.** With OC[C@H]1O[C@H](O[C@H]2O[C@H](CO)[C@@H](O)[C@H](O)[C@H]2O)[C@H](O)[C@@H](O)[C@@H]1O [trehalose, α, α-trehalose] as the compound, how does the “area of the epithelial tissue layer formed” value ([1]; 10 mg/mL trehalose added to collagen gel containing fibroblasts, compared to no trehalose) read?
**A.** The value was “slightly enlarged”.

**Q.** What about the “area of the epithelial tissue layer formed” value ([1]; 100 mg/mL trehalose added to collagen gel containing fibroblasts) of the same compound?
**A.** The value was “extended to the outer edge of the insert and further expanded to protrude to the outside of the insert”.

**Q.** And the “contraction of the collagen gel” value [1, 7]?
**A.** The value was “not observed”.

**Q.** And the “wrinkles and rumples of the sheet-like epithelial tissue layer” value [1, 7]?
**A.** The value was “without wrinkles and rumples”.

**Q.** What about the “Ki67 positive cells in the dermal tissue layer” value ([2]; 0, 10, 100 mg/mL trehalose) of the same compound?
**A.** Its value is “increased as the concentration of trehalose increased”.

**Q.** What about the “difference in staining pattern depending on the concentration of trehalose” value ([2]; HE, EVG, HABP, K10, K5, Alcian blue, SMA stains (all except Ki67), 0, 10, 100 mg/mL) of the same compound?
**A.** The value was “no difference”.

**Q.** And the “formation of epithelial tissue layer” value [3]?
**A.** Its value is “not observed”.

**Q.** What about the “phosphorylation of ERK1/2” value [4] of the same compound?
**A.** Its value is “promoted as the concentration of trehalose in the medium increases”.

**Q.** What about the “phosphorylation of AKT” value [5] of the same compound?
**A.** The value was “promoted as the concentration of trehalose in the medium increases”.

**Q.** What about the “FGF2 expression level compared to control without trehalose (vehicle)” value (FGF2 mRNA; 30 mg/mL trehalose) of the same compound?
**A.** Its value is “increase”.

**Q.** What about the “expression level of FGF2 mRNA” value (FGF2 mRNA; 30 mg/mL trehalose, after 48 hours) of the same compound?
**A.** Its value is “slightly increased”.

**Q.** And the “FGF2 expression level compared to control without trehalose (vehicle)” value (FGF2 mRNA; 100 mg/mL trehalose)?
**A.** The value was “increase”.

**Q.** And the “FGF2 mRNA expression level compared to that at the start of the culture” value (FGF2 mRNA; [8])?
**A.** The value was “still also increased”.

**Q.** What about the “FGF2 mRNA expression level compared to the control” value (FGF2 mRNA; [8]) of the same compound?
**A.** The value was “significantly increased”.

**Q.** And the “FGF2 mRNA expression level compared to that at the start of the culture” value (FGF2 mRNA; [9])?
**A.** Its value is “still also increased”.

**Q.** And the “FGF2 mRNA expression level compared to the control” value (FGF2 mRNA; [9])?
**A.** The value was “significantly increased”.

**Q.** What about the “mRNA expression levels of genes EREG, ARG2, CCL2, IL1RN, PGF, SPP1, VEGFA, AREG and DPT compared to vehicle” value [6] of the same compound?
**A.** The value was “remarkably increased”.
